Biological target: T1, Neutrophil elastase (Homo sapiens, UniProt P08246)
T1 sequence (P08246 whole entry): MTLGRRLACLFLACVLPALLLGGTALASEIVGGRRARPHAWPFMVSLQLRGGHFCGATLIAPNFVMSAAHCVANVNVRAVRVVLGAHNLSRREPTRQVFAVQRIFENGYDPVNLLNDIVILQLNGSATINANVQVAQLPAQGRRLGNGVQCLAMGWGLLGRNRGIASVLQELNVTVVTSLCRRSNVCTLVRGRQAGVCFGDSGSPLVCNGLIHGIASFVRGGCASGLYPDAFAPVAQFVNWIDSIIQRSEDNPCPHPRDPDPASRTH
Assay: ChEBML_64294
Description: Kinetic constant for human neutrophil elastase

Ki [µM]	Structure (SMILES)
36.7	CC[C@@H](C)/C(NS(=O)(=O)c1ccc(C)cc1)=C(\O)[N]1[C@@H](CCCCNC(=O)C23CC4CC(CC(C4)C2)C3)C(=O)[N]2[C@H](C(=O)N[C@H](C(=O)O)C(C)C)C[S][Re]21=[O] (stereo partly drawn)
194	CC[C@@H](C)/C(NCc1ccccc1)=C(\O)[N]1[C@@H](CCCCNC(=O)C23CC4CC(CC(C4)C2)C3)C(=O)[N]2[C@H](C(=O)N[C@H](C(N)=O)C(C)C)C[S][Re]21=[O] (stereo partly drawn)
133	CC[C@@H](C)/C(NS(=O)(=O)c1ccc(C)cc1)=C(\O)[N]1[C@@H](CCCCNC(=O)C23CC4CC(CC(C4)C2)C3)C(=O)[N]2[C@H](C(=O)N[C@H](C(N)=O)C(C)C)C[S][Re]21=[O] (stereo partly drawn)

— BindingDB's records for doi:10.1016/s0960-894x(99)00217-6 (Palatin Technologies, 1999)
